# From US7531329B2, “Carbonyl reductase, gene thereof and method of using the same” (Kaneka Corporation, priority 2002, dated 2009)
# System: reductase RDR
# Experiment: Substrate specificity of the reductase RDR (NADH oxidation, decrease in absorbance at 340 nm)
# Assay type: biochemical, Devosia riboflavina IFO 13584
# Conditions: substrate 1 mM, NADH 0.25 mM, 100 mM phosphate buffer pH 6.5, 0.33% (v/v) dimethyl sulfoxide, 30° C.
row,Compound,"% activity (relative value, activity to N-benzyl-3-pyrrolidinone taken as 100%) [%]"
1,CC(=O)c1ccccn1 [2-acetylpyridine],13
2,CCOC(=O)CC(=O)COC(C)=O [ethyl 4-acetoxyacetoacetate],4234
3,"COc1ccc(C(C)=O)cc1OC [3,4-dimethoxyacetophenone]",2073
4,CCCCC(C)=O [2-hexanone],5043
5,CCC(=O)CC [diethyl ketone],32
6,O=C1CCCC1 [cyclopentanone],103
7,CC(=O)c1ccc[nH]1 [2-acetylpyrrole],70
8,O=Cc1ccccn1 [2-pyridinecarbaldehyde],82
9,O=C(CCl)c1cccc(Cl)c1 [2-chloro-1-(3′-chlorophenyl)ethanone],463
10,O=C(CO)c1ccccc1 [2-hydroxyacetophenone],30
11,CCOC(=O)C(C)C(C)=O (centres unmarked) [ethyl 2-methylacetoacetate],239
12,CCC(=O)c1ccccc1 [propiophenone],27
13,CC(=O)CC(C)C [4-methyl-2-pentanone],962
14,CC(=O)CC(=O)OCc1ccccc1 [benzyl acetoacetate],2015
15,CC(=O)c1ccc(F)cc1 [4-fluoroacetophenone],366
16,CC(=O)c1ccccc1 [acetophenone],181
17,CC(C=O)c1ccccc1 (centres unmarked) [2-phenylpropionaldehyde],706
18,COC(=O)CC(C)=O [methyl acetoacetate],8341
19,O=C(O)CC(=O)C(=O)O [oxalacetic acid],14
20,CC(=O)C1CC1 [cyclopropyl methyl ketone],20
21,CC(=O)c1cccc(O)c1 [m-hydroxyacetophenone],61
22,CC(=O)CC(=O)OC(C)(C)C [tert-butyl acetoacetate],5634
23,CC(=O)CCO [4-hydroxy-2-butanone],33
24,CCOC(=O)CC(=O)CO [ethyl 4-hydroxyacetoacetate],1774
25,O=C1CCc2ccccc2C1 [2-tetoralone],1721

row,Compound,"% activity (relative value, activity to N-benzyl-3-pyrrolidinone taken as 100%) [%]"
1,"COc1cc2c(cc1OC)CC(=O)CC2 [6,7-dimethoxy-2-tetoralone]",2267
2,O=C1CCN(Cc2ccccc2)C1 [N-benzyl-3-pyrrolidinone],100
3,CCOC(=O)CC(=O)c1ccccc1 [ethyl benzoylacetate],98
4,CC(C)=O [acetone],194
5,COc1ccc2c(c1)CCC(=O)C2 [6-methoxy-2-tetoralone],156
6,CCCC=O [n-butylaldehyde],728
7,CCC(=O)C(=O)O [2-keto-n-butyric acid],15
8,CCCCCC=O [n-hexylaldehyde],2225
9,CC(=O)CCC(=O)O [levulinic acid],11
10,COC(=O)C(C)=O [methyl pyruvate],1889
11,CC(=O)C=O [methyl glyoxal],345
12,CC(=O)c1ccncc1 [4-acetylpyridine],6448
13,CC(=O)C(C)=O [diacetyl],1614
14,CCOC(=O)CC(=O)CBr [ethyl 4-bromoacetoacetate],4099
15,CCOC(=O)CC(=O)CN=[N+]=[N-] [ethyl 4-azideacetoacetate],804
16,CCOC(=O)CC(=O)COCc1ccccc1 [ethyl 4-benzyloxyacetoacetate],3186
17,CCC(=O)Cc1ccccc1 [1-phenyl-2-butanone],147
18,CCOC(=O)CC(=O)CCl [ethyl 4-chloroacetoacetate],683
19,CCOC(=O)CC(C)=O [ethyl acetoacetate],4236
20,CC(=O)c1ccc(C)cc1 [p-methylacetophenone],521
21,O=Cc1cccc(Cl)c1 [m-chlorobenzaldehyde],301
22,CC(=O)CCc1ccccc1 [benzylacetone],410
23,"CC1(C)COC(=O)C1=O [dihydro-4,4-dimethyl-2,3-furandione]",1314
24,CCCCCCCCOC(=O)CC(=O)CCl [n-octyl 4-chloroacetoacetate],224
25,CC(=O)CC(C)=O [acetylacetone],1354

row,Compound,"% activity (relative value, activity to N-benzyl-3-pyrrolidinone taken as 100%) [%]"
1,C=CC(C(C)=O)C(=O)OCC (centres unmarked) [ethyl 2-eteneacetoacetate],429
2,CCCCCCCCC(=O)C(=O)OCC [ethyl 2-oxodecanoate],18
3,CC(=O)c1ccc(Cl)cc1 [p-chloroacetophenone],2354
4,CCOC(=O)C(C)=O [ethyl pyruvate],6232
5,CC(=O)CO [hydroxyacetone],100
6,O=CCCc1ccccc1 [3-phenylpropionaldehyde],685
7,O=Cc1cccc([N+](=O)[O-])c1 [m-nitrobenzaldehyde],683
8,CCC=O [propionaldehyde],204
9,O=Cc1ccccc1Cl [o-chlorobenzaldehyde],9
10,O=Cc1ccc(Cl)cc1 [p-chlorobenzaldehyde],117
11,COc1ccc2c(c1)CC(=O)CC2 [7-methoxy-2-tetoralone],7084
12,O=Cc1ccccc1[N+](=O)[O-] [o-nitrobenzaldehyde],33
13,O=CCCCC=O [glutaraldehyde],1339
14,CC(=O)c1cccnc1 [3-acetylpyridine],788
15,CCCCCC(C)=O [2-heptanone],2777
16,O=Cc1ccccc1 [benzaldehyde],21
17,O=Cc1ccc([N+](=O)[O-])cc1 [p-nitrobenzaldehyde],1296
18,CCC(C)=O [2-butanone],280
19,CC(=O)c1cccc([N+](=O)[O-])c1 [m-nitroacetophenone],6927
20,CCOC(=O)C(Cl)C(C)=O (centres unmarked) [ethyl 2-chloroacetoacetate],8907
21,O=C(c1ccccc1)C(O)c1ccccc1 (centres unmarked) [benzoin],13
22,CCOC(=O)C1CCC(=O)C1 (centres unmarked) [ethyl 3-oxocyclopentane carboxylate],87
23,O=Cc1ccncc1 [pyridine-4-aldehyde],441
24,CCOC(=O)C(Cl)C(=O)c1ccccc1 (centres unmarked) [ethyl 2-chloro-3-oxo-3-phenyloropionate],52
